In patent US8858962B2, “Adjuvant or pharmaceutical preparation for transdermal or transmucosal administration” (priority 2005, dated 2014):

Legend:
BALB/c mice = assay: Skin irritation score, intradermal vs transdermal administration; format: in vivo
[1] = tested on: OVA-specific IgG antibody; assay: OVA-specific IgG antibody titer by ELISA; OVA intradermal plus adjuvant transdermal; format: in vivo, BALB/c mice; details: for Antibody titer (×10^4): OVA 10 ug/head intradermal, 25 uL adjuvant transdermal, dosing at 0, 2, 4 W, 5 W data; for antigen IgG immune response: intradermal ovalbumin plus transdermal adjuvant on intact skin
Description: OVA was dissolved in physiological saline and adjusted to give 10 ug/head, and for an OVA-only group 25 uL of the OVA aqueous solution was intradermally administered. For groups in which there was combined use with various types of adjuvant, immediately after the OVA solution was intradermally administered, 25 uL of the adjuvant solution was transdermally administered (coated) via the skin surface of the abdomen. Administration was carried out at 0, 2, and 4 W, blood was collected at 2, 4, and 5 W, and the OVA-specific IgG antibody titer after 2, 4, and 5 W was measured by ELISA.

MHC Class II molecules = assay: Intensity of expression of MHC Class II molecules by lymph cells after transdermal adjuvant (flow cytometry, FIG. 1); format: in vivo, BALB/c mice; details: for lymph cell count: 50 uL of acetone solution (50%) on shaved abdomen, lymph node removed 5 days later
Description: On the other hand, for a group for which an antigen hapten was used in combination, 50 uL of a 1:1 mixture of an FITC solution (5 mg/mL in acetone) and a solution of the adjuvant was transdermally administered to the abdomen. 5 days later, lymph node (cervix, groin) was removed, and the intensity of expression of MHC Class II molecules by lymph cells was analyzed by flow cytometry (FIG. 1).

[2] = tested on: OVA-specific IgG antibody; assay: OVA-specific IgG antibody titer; microneedles coated with antigen emulsion (FIG. 5); format: in vivo, BALB/c mice; details: OVA 0.1 mg/patch; microneedles coated with emulsion 1:1:0.01 (Tween 80); punctured 2 hours
Description: Furthermore, for microneedle groups (OVA+lauryl alcohol or oleyl alcohol) microneedle needles were coated with an emulsion [antigen solution:olive oil or lauryl alcohol:surfactant (Tween 80)=1:1:0.01], and puncturing was carried out for 2 hours. Administering was carried out at 0, 2, and 4 W, blood was collected at 2, 4, and 5 W, and the OVA-specific IgG antibody titer was measured by ELISA.

[3] = tested on: OVA-specific IgG antibody; assay: OVA-specific IgG antibody titer; OVA/LA emulsion with microneedle, skin abrasion or iontophoresis (FIG. 2); format: in vivo, BALB/c mice; details: OVA 100 ug/head; OVA solution:LA:Tween 20 1:1:0.01; IP, MN, Skin Prep modes; 4 W data
Description: OVA (ovalbumin antigen) was adjusted to give 100 ug/head, for an OVA-only group an OVA aqueous solution was applied, and for a group in which lauryl alcohol (LA) was used in combination, an emulsified solution formed by mixing the OVA solution, LA and Tween 20 (emulsifier) at 1:1:0.01 was used. For the microneedle group, the pre-shaved abdomen skin was punctured with 1 cm^2 of microneedles (needle length about 200 um, 400 needles/cm^2), and immediately after this 50 uL of the above-mentioned emulsion solution was applied. For the skin abrasion treatment group, instead of the microneedles, the skin was abraded 5 times with 3M RED Dot™ 2236 and 50 uL of the emulsion solution was applied. For the iontophoresis group, after the shaven abdomen skin was coated with 50 uL of the emulsion solution, an iontophoresis preparation (nonwoven cloth preparation: Ag, Ag/AgCl 1 cm^2) formed by impregnating a nonwoven cloth with physiological saline was affixed to the coated site, and direct current (0.4 mA/patch) was applied for 1 hour. Administration was carried out at 0, 2, and 4 W, blood was collected at 2, 4, and 5 W, and the OVA-specific IgG antibody titer was measured by ELISA.

[4] = tested on: OVA-specific IgG antibody; assay: OVA-specific IgG antibody titer; antigen-coated microneedles with LA applied in advance (FIG. 3); format: in vivo, hairless rats; details: OVA 2 mg/patch on coated microneedles, punctured 2 hours
Description: OVA was adjusted to give 2 mg/patch, a needle portion of microneedles was coated with the antigen and 5% polyvinyl alcohol liquid, and for a microneedle group the abdomen of 7 to 8 W male hairless rats was punctured for 2 hours with physiological saline dropped onto the skin side. For a microneedle+lauryl alcohol group, LA was applied in advance, physiological saline was dropped onto the skin side, and it was punctured for 2 hours with microneedle needles coated with the antigen and 5% polyvinyl alcohol liquid. Administration was carried out at 0, 2, and 4 W, blood was collected at 2, 4, and 5 W, and the OVA-specific IgG antibody titer was measured by ELISA.

[5] = tested on: OVA-specific IgG antibody; assay: OVA-specific IgG antibody titer; microneedles coated with antigen emulsion (FIG. 4); format: in vivo, hairless rats; details: OVA 2 mg/patch; microneedles coated with emulsion antigen:oil or alcohol:Tween 80 1:1:0.01; punctured 2 hours
Description: OVA was adjusted to give 2 mg/patch, and for a microneedle group (OVA+5% polyvinyl alcohol), the abdomen of 7 to 8 W male hairless rats was punctured for 2 hours with a needle portion of microneedles coated with antigen and 5% polyvinyl alcohol liquid [mixed at antigen solution:10% polyvinyl alcohol=1:1]. Furthermore, for microneedle groups (OVA+olive oil) or (OVA+lauryl alcohol), microneedle needles were coated with an emulsion [antigen solution:olive oil or lauryl alcohol:surfactant (Tween 80)=1:1:0.01], and puncturing was carried out for 2 hours. Administration was carried out at 0, 2, and 4 W, blood was collected at 2, 4, and 5 W, and the OVA-specific IgG antibody titer was measured by ELISA.

OVA = assay: Effect of LA adjuvant in administration via oral mucous membrane, antibody titer (FIG. 7); format: in vivo, BALB/c mice; details: OVA 2500 ug/head; antigen solution:LA:Tween 80 8:2:0.05 and 5:5:0.05; blood after 2 weeks

| Compound | skin irritation on transdermal administration (BALB/c mice) | Antibody titer (×10^4) [1] | lymph cell count (MHC Class II molecules) | other results |
| --- | --- | --- | --- | --- |
| CCCCCCCCCCC(CO)CCCCCCCC (centres unmarked) [Octyldodecanol, octyldodecanol] | did not cause skin irritation | 0.6 ×10^4 | – | – |
| CCCCCCCC/C=C\CCCCCCCCO [Oleyl alcohol, oleyl alcohol] | did not cause skin irritation | 2.1 ×10^4 | remarkable increase | antigen IgG immune response [1]: highest immune response; OVA-specific IgG antibody titer [2]: increased remarkably |
| polyethylene glycol monolaurate | did not cause skin irritation | 0.9 ×10^4 | – | – |
| CCCCCCCCCCCCO [Lauryl alcohol, lauryl alcohol] | did not cause skin irritation | 2.1 ×10^4 | remarkable increase | adjuvant effect in transdermal administration (MHC Class II molecules; comparison among adjuvants): most outstanding adjuvant effect; antigen IgG immune response [1]: highest immune response; OVA-specific IgG antibody titer [3]: significant increase; OVA-specific IgG antibody titer [4]: increased,remarkably; OVA-specific IgG antibody titer [5]: increased remarkably; OVA-specific IgG antibody titer [2]: increased remarkably; antibody titer, oral mucous membrane administration (OVA): increased in response to the LA concentration |
| sorbitan monolaurate | did not cause skin irritation | – | remarkable increase | – |
| sorbitan monooleate | – | – | remarkable increase | – |
| CCCCCCCC/C=C\CCCCCCCC(=O)O [oleic acid] | – | – | remarkable increase | – |
| CC(C)CCCCCCCCCCCCCCCO [Isostearyl alcohol, isostearyl alcohol] | did not cause skin irritation | 1.3 ×10^4 | remarkable increase | – |
